Usually GI50 stands for the concentration giving 50% growth inhibition. Broadly, the IC50 is the midpoint of a concentration-inhibition curve.

The test system of experiment [1] is HeLa. Description: Antiproliferative activity against human HeLa cells assessed as growth inhibition after 48 h by MTT assay. Format: functional. Background: Formazan colour is commonly taken as a measure of viable cells.
The test system of experiment [2] is SH-SY5Y. The experiment can be described thus: Antiproliferative activity against human SH-SY5Y cells assessed as growth inhibition after 48 h by MTT assay. It is filed as functional.
Experiment [3] deals with T1, Lysine-specific histone demethylase 1A (Homo sapiens, UniProt O60341). Description: Inhibition of full length human fusion His6 tagged LSD1 expressed in Escherichia coli BL21(DE3) cells using H3K4me2 peptide substrate preincubated for 5 mins by peroxidase-coupled method.
Experiment [4] deals with T1, Lysine-specific histone demethylase 1A. Description: Potency index, ratio of IC50 for NCL1 to IC50 for test compound against full length human fusion His6 tagged LSD1 expressed in Escherichia coli BL21(DE3) cells.
Experiment [5] has the same target. The experiment can be described thus: Inhibition of LSD1 in human SH-SY5Y cells assessed as induction of H3K4me2 accumulation at 10 uM after 24 hrs by Western blot method. It is filed as cell-based.
The target is the same in experiment [6]. The experiment can be described thus: Inhibition of LSD1 in human SH-SY5Y cells assessed as induction of H3K4me2 accumulation at 30 uM after 24 hrs by Western blot method. Format: cell-based. (In western blotting, separated proteins are transferred to a membrane and probed.)
For experiment [7], the target named is T2, Amine oxidase [flavin-containing] A (Homo sapiens, UniProt P21397).
T2 sequence (P21397 whole entry): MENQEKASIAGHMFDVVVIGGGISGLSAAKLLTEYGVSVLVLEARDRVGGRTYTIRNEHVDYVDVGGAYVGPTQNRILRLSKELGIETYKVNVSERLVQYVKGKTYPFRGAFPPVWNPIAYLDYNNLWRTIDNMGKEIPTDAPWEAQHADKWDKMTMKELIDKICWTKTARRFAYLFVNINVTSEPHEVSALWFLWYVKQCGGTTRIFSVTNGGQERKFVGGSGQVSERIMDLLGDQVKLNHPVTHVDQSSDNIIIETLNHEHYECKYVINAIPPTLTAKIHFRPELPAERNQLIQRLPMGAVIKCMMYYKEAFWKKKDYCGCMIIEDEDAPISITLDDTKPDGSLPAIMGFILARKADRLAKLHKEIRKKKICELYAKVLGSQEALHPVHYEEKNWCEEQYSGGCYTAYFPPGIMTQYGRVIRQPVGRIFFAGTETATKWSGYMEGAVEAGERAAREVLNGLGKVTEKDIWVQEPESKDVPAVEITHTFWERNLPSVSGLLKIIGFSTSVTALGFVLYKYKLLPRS
Description: Inhibition of MAOA (unknown origin).

The target of experiment [8] is T1, Lysine-specific histone demethylase 1A. The experiment can be described thus: Time-dependent inhibition of full length human fusion His6 tagged LSD1 expressed in Escherichia coli BL21(DE3) cells using H3K4me2 peptide substrate preincubated for 5 mins by peroxidase-coupled method.
Experiment [9] shares this target. Description: Time-dependent inhibition of full length human fusion His6 tagged LSD1 expressed in Escherichia coli BL21(DE3) cells assessed as enzyme inactivation using H3K4me2 peptide substrate preincubated for 5 mins by peroxidase-coupled method.
For experiment [10] the target is unchanged. The experiment can be described thus: Inhibition of full length human fusion His6 tagged LSD1 expressed in Escherichia coli BL21(DE3) cells assessed as FAD-NCL1 adduct formation at 100 uM incubated for 22 hrs by MALDI-TOF mass spectrometry.
In experiment [11] the target is T3, Amine oxidase [flavin-containing] B (Homo sapiens, UniProt P27338).
T3 sequence (P27338 whole entry): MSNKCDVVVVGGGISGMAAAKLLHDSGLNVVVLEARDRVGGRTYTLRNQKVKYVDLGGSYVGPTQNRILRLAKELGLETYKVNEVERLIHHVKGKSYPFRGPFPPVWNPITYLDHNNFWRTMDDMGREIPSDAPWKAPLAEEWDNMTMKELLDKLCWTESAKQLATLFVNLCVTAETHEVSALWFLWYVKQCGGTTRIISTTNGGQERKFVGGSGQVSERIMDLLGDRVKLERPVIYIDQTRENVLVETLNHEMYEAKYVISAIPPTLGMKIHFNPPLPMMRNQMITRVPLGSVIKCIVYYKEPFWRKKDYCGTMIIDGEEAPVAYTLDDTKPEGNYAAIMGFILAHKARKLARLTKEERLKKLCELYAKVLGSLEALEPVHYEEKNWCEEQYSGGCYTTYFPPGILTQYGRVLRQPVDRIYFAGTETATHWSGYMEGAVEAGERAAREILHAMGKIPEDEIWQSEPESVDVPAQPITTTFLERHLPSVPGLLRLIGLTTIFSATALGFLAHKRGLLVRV
Description: Inhibition of MAOB (unknown origin).

Activity calls are given as the source filed them. The calls are words filed in the database; no cut-off is given here.

Consider `NC1CC1c1cccc(OCC[C@H](NC(=O)c2ccccc2)C(=O)NCc2ccccc2)c1` (some centres not stated), for which the values for the GI50 in [1] and in [2] were 13 µM and 27 µM, respectively.
In the case of `CN1CCN(C(=O)CNC2CC2c2cccc(O)c2)CC1` (configuration not stated), the IC50 in experiment [3] was found to be 2.4 µM. Also, the GI50 in experiment [1] and in [2] was above 240 µM each time.
For the molecule `CN1CCN(C(=O)CNC2CC2c2cccc(OCC[C@H](NC(=O)c3ccccc3)C(=O)NCc3ccccc3)c2)CC1` (some centres not stated), the Ratio IC50 in [4] is 6. The results for the IC50 in experiment [3], in experiment [7] and in [11] were 0.38 µM, above 100 µM and above 100 µM, respectively. For the same molecule, the figures for the 50% growth inhibitory concentration (GI50) in experiment [1] and in experiment [2] were 109 µM and 42 µM, respectively. Further, the inhibition entry in experiment [5], in experiment [6] and in experiment [10] was “Active” each time. Also, the Ki in [8] turned out to be 2.4 µM. In experiment [8] (TDE = time-dependent effect), the inhibition result is “tde”. Also, the Kinact in [9] came to 0.0035 s⁻¹.
